Biological target: T1, human FSH receptor (Homo sapiens, UniProt P23945)
T1 construct: expressed in transfected cells; host or cells: CHO (Chinese Hamster Ovary) cells, stably transfected; cotransfected with a CRE-luciferase reporter
T1 sequence (P23945 18-695): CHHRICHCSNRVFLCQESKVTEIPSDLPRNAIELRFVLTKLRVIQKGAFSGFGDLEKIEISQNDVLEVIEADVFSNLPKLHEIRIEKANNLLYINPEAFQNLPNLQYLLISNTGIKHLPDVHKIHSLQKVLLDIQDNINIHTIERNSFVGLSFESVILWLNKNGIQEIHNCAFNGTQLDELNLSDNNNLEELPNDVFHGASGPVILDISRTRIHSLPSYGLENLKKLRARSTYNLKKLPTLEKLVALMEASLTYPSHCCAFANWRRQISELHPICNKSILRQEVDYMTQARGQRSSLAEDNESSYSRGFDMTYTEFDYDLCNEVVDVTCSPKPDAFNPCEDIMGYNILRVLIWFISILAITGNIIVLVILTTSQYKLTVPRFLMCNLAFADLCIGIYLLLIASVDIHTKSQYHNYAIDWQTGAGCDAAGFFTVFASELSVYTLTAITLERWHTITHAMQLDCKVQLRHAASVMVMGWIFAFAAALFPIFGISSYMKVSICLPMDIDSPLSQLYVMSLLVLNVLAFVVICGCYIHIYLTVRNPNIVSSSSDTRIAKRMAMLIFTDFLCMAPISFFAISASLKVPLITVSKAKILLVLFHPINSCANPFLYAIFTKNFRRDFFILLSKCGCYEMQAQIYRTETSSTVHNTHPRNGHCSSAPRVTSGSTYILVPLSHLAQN
Assay: Antagonistic activity at the human FSH receptor expressed in CHO cells (CRE-luciferase reporter)
Type: cell-based
Settings: CHO cells stably transfected with human FSH receptor and CRE-luciferase; with 49 μM recFSH; 4 hours incubation; read-out: IC50 (inhibition of recFSH-induced luciferase stimulation)
Protocol: Antagonistic Activity of Compounds at the Human FSH Receptor Expressed in CHO Cells
Antagonistic activity of the compounds at the human FSH receptor was determined in Chinese Hamster Ovary (CHO) cells stably transfected with the human FSH receptor and cotransfected to with a cAMP responsive element (CRE)/promoter directing the expression of a firefly luciferase reporter gene. Binding of the compounds to the Gs protein-coupled FSH receptor will result in an increase of cAMP, which in turn will induce an increased transactivation of the luciferase reporter. The cells (7,500 cells/well of a 384 well plate) were incubated in Dulbecco′ minimal essential F12 modified medium (Invitrogen), supplemented with 1 μg/ml bovine insulin, 5 μg/ml human apo-transferrin, 100 U/ml penicillin G and 100 μg/ml streptomycin with the test compounds (concentration between 0.316 nM and 10.0 μM) in duplicate together with […] recFSH (which, at this concentration in the absence of test compound, induces 80% of the maximal luciferase stimulation) in a humidified atmosphere (95%) at 5-7% CO2 and 37° C. The final concentration of DMSO was 1%. After 4 hours of incubation, plates were allowed to adjust to room temperature for 1 hour. Then, SteadyLite (PerkinElmer) solution was added to the wells and cells were allowed to lyse for at least 1 hour at room temperature. Subsequently, luciferase activity was measured in a luminescence counter. The signal is expressed as counts per second (cps). The IC50 (concentration of test compound causing half-maximal (50%) inhibition of the maximally attainable inhibition of the luciferase stimulation by the compound) and efficacy of the compounds were determined using the software program MathIQ (version 2.3, ID Business Solutions Limited).

Row | IC50 | SMILES
1 | < 100 nM | COc1cc2c(cc1OC)-c1cc(C(=O)N[C@@H](CO)Cc3c[nH]c4ccccc34)c(-c3cccc(F)c3F)cc1OC2 [Example 37, 3-(2,3-difluorophenyl)-N—((R)-1-hydroxy-3-(1H-indol-3-yl)propan-2-yl)-8,9-dimethoxy-6H-benzo[c]chromene-2-carboxamide]
2 | 100 to 1000 nM | CC(C)Oc1cc2oc(=O)c3cc4c(cc3c2cc1C(=O)N[C@@H](CO)Cc1c[nH]c2ccccc12)OCO4 [Example 57, N—((R)-1-hydroxy-3-(1H-indol-3-yl)propan-2-v)-8,9-(1′,3′-dioxolo)-3-(3-isopropoxy)-6-oxo-6H-benzo[c]chromene-2-carboxamide]
3 | < 100 nM | COc1cc2c(cc1-c1ccncc1)COc1cc(-c3ccccc3F)c(C(=O)N[C@@H](CO)Cc3c[nH]c4ccccc34)cc1-2 [Example 52, 3-(2-fluorophenyl)-N—((R)-1-hydroxy-3-(1H-indol-3-yl)propan-2-yl)-9-methoxy-8-(pyridin-4)-6H-benzo[c]chromene-2-carboxamide]
4 | < 100 nM | COc1cc2c(cc1OC)-c1cc(C(=O)N[C@@H](CO)Cc3c[nH]c4ccccc34)c(-c3ccco3)cc1CC2 [Example 24, (R)-2-(furan-2-yl)-N-(1-hydroxy-3-(1H-indol-3-yl)propan-2-yl)-6,7-dimethoxy-9,10-dihydrophenanthrene-3-carboxamide]
5 | < 100 nM | COc1cc2c(cc1OC)-c1cc(C(=O)N[C@@H](CO)Cc3c[nH]c4ccccc34)c(-c3ccccc3)cc1OC2 [Example 40, (R)—N-(1-hydroxy-3-(1H-indol-3-yl)propan-2-yl)-8,9-dimethoxy-3-phenyl-6H-benzo[c]chromene-2-carboxamide]
6 | < 100 nM | COCCOc1cc2c(cc1OC)-c1cc(C(=O)N[C@@H](CO)Cc3c[nH]c4ccccc34)c(-c3ccccc3F)cc1OC2 [Example 45, 3-(2-fluorophenyl)-N—((R)-1-hydroxy-3-(1H-indol-3-yl)propan-2-yl)-9-methoxy-8-(2-methoxyethoxy)-6H-benzo[c]chromene-2-carboxamide]
7 | < 100 nM | CN(C)C(=O)c1ccc2c(c1)COc1cc(-c3ccccc3F)c(C(=O)N[C@@H](CO)Cc3c[nH]c4ccccc34)cc1-2 [Example 54, 3-(2-fluorophenyl)-N2-((R)-1-hydroxy-3-(1H-indol-3-yl)propan-2-yl)-N8,N8-dimethyl-6H-benzo[c]chromene-2,8-dicarboxamide]
8 | < 100 nM | C=CCOc1cc2c(cc1OC)CCc1cc(-c3ccccc3F)c(C(=O)N[C@@H](CO)Cc3c[nH]c4ccccc34)cc1-2 [Example 29, 6-(allyloxy)-2-(2-fluorophenyl)-N—((R)-1-hydroxy-3-(1H-indol-3-yl)propan-2-yl)-7-methoxy-9,10-dihydrophenanthrene-3-carboxamide]
9 | < 100 nM | COc1cc2c(c(OC)c1OC)CCc1cc(-c3cccnc3OC)c(C(=O)N[C@@H](CO)Cc3c[nH]c4ccccc34)cc1-2 [Example 6, N—((R)-1-hydroxy-3-(1H-indol-3-yl)propan-2-yl)-6,7,8-trimethoxy-2-(2-methoxypyrdin-3-v)-9,10-dihydrophenanthrene-3-carboxamide]
10 | < 100 nM | CCCC(C)Oc1cc2c(cc1C(=O)N[C@@H](CO)Cc1c[nH]c3ccccc13)-c1cc(OC)c(OC)cc1CC2 (stereo partly drawn) [Example 10, N—((R)-1-hydroxy-3-(1H-indol-3-yl)propan-2-yl)-6,7-dimethoxy-2-(pentan-2-yloxy)-9,10-dihydrophenanthrene-3-carboxamide]
11 | < 100 nM | COc1cc2c(cc1OCCO)COc1cc(-c3ccccc3F)c(C(=O)N[C@@H](CO)Cc3c[nH]c4ccccc34)cc1-2 [Example 47, 3-(2-fluorophenyl)-N—((R)-1-hydroxy-3-(1H-indol-3-yl)propan-2-yl)-8-(2-hydroxyethoxy)-9-methoxy-6H-benzo[c]chromene-2-carboxamide]
12 | < 100 nM | COc1cc2c(c(OC)c1OC)CCc1cc(OC(C)C)c(C(=O)N[C@@H](CO)Cc3c[nH]c4ccccc34)cc1-2 [Example 7, (R)—N-(1-hydroxy-3-(1H-indol-3-yl)propan-2-yl)-2-isopropoxy-6,7,8-trimethoxy-9,10-dihydrophenanthrene-3-carboxamide]
13 | 100 to 1000 nM | COc1cc2c(cc1O)-c1cc(C(=O)N[C@@H](CO)Cc3c[nH]c4ccccc34)c(-c3ccccc3F)cc1CC2 [Example 31, 2-(2-fluorophenyl)-6-hydroxy-N—((R)-1-hydroxy-3-(1H-indol-3-yl)propan-2-yl)-7-methoxy-9,10-dihydrophenanthrene-3-carboxamide]
14 | < 100 nM | COc1cc2c(cc1OCCN(C)C)COc1cc(-c3ccccc3F)c(C(=O)N[C@@H](CO)Cc3c[nH]c4ccccc34)cc1-2 [Example 48, 8-(2-(dimethylamino)ethoxy)-3-(2-fluorophenyl)-N—((R)-1-hydroxy-3-(1H-indol-3-yl)propan-2-yl)-9-methoxy-6H-benzo[c]chromene-2-carboxamide]
15 | 100 to 1000 nM | COc1cc2c(cc1OC)-c1cc(C(=O)N[C@@H](CO)Cc3c[nH]c4ccccc34)c(OC(C)C#N)cc1CC2 (stereo partly drawn) [Example 12, 2-(1-cyanoethoxy)-N—((R)-1-hydroxy-3-(1H-indol-3-yl)propan-2-yl)-6,7-dimethoxy-9,10-dihydrophenanthrene-3-carboxamide]
16 | < 100 nM | COc1cccc(-c2cc3c(cc2C(=O)N[C@@H](CO)Cc2c[nH]c4ccccc24)-c2cc(OC)c(OC)cc2CC3)c1 [Example 25, (R)—N-(1-hydroxy-3-(1H-indol-3-v)propan-2-v)-6,7-dimethoxy-2-(3-methoxyphenyl)-9,10-dihydrophenanthrene-3-carboxamide]
17 | < 100 nM | Cc1ccsc1-c1cc2c(cc1C(=O)N[C@@H](CO)Cc1c[nH]c3ccccc13)-c1cc3c(cc1CO2)OCO3 [Example 56, N—((R)-1-hydroxy-3-(1H-indol-3-yl)propan-2-yl)-8,9-(1′,3′-dioxolo)-3-(3-methylthiophen-2-yl)-6H-benzo[c]chromene-2-carboxamide]
18 | < 100 nM | O=C(N[C@@H](CO)Cc1c[nH]c2ccccc12)c1cc2c(cc1-c1ccccc1F)OCc1cc3c(cc1-2)OCO3 [Example 55, 3-(2-fluorophenyl)-N—((R)-1-hydroxy-3-(1H-indol-3-yl)propan-2-yl)-8,9-(1′,3′-dioxolo)-6H-benzo[c]chromene-2-carboxamide]
19 | < 100 nM | COc1cc2c(cc1OC(C)C)COc1cc(-c3ccccc3F)c(C(=O)N[C@@H](CO)Cc3c[nH]c4ccccc34)cc1-2 [Example 43, 3-(2-fluorophenyl)-N—((R)-1-hydroxy-3-(1H-indol-3-yl)propan-2-yl)-8-isopropoxy-9-methoxy-6H-benzo[c]chromene-2-carboxamide]
20 | < 100 nM | COc1cc2c(cc1OC)-c1cc(C(=O)N[C@@H](CO)Cc3c[nH]c4ccccc34)c(OC(C)C)cc1OC2 [Example 34, (R)—N-(1-hydroxy-3-(1H-indol-3-yl)propan-2-yl)-3-isopropoxy-8,9-dimethoxy-6H-benzo[c]chromene-2-carboxamide]
21 | < 100 nM | C=CCOc1cc2c(cc1OC)-c1cc(C(=O)N[C@@H](CO)Cc3c[nH]c4ccccc34)c(-c3ccccc3F)cc1OC2 [Example 46, 8-(allyloxy)-3-(2-fluorophenyl)-N—((R)-1-hydroxy-3-(1H-indol-3-yl)propan-2-yl)-9-methoxy-6H-benzo[c]chromene-2-carboxamide]
22 | < 100 nM | COc1cc2c(cc1OC)-c1cc(C(=O)N[C@@H](CO)Cc3c[nH]c4ccccc34)c(-c3c(F)cc(O)cc3F)cc1CC2 [Example 19, (R)-2-(2,6-difluoro-4-hydroxyphenyl)-N-(1-hydroxy-3-(1H-indol-3-yl)propan-2-yl)-6,7-dimethoxy-9,10-dihydrophenanthrene-3-carboxamide]
23 | 100 to 1000 nM | COc1cc2c(cc1OC)-c1cc(C(=O)N[C@@H](CO)Cc3c[nH]c4ccccc34)c(-c3cccc(C(N)=O)c3)cc1CC2 [Example 26, (R)-2-(3-carbamoylphenyl)-N-(1-hydroxy-3-(1H-indol-3-yl)propan-2-yl)-6,7-dimethoxy-9,10-dihydrophenanthrene-3-carboxamide]
